These results are taken from publication PMC7122821, “Molecular basis of P[II] major human rotavirus VP8* domain recognition of histo-blood group antigens” (PLoS Pathogens, 2020).

One test relates to D186A-P[8] VP8* mutant. Put plainly: HSQC NMR titration of D186A-P[8] mutant with LNDFH I. The conditions noted are these: same ligand ratio as wild type P[8]. The test is classed as binding, human RV. Here is the method: (§1) The VP8* core fragments (amino acids 64 to 223) of the human RV P[8] (BM13851) and P[6] (BM11596) with an N-terminal glutathione S-transferase (GST) tag was overexpressed in Escherichia coli BL21 (DE3) cells as previously described. The P[8] T78A, D79A, K168A, R154A, H177A, and D186A mutations were generated through overlap-extension site mutagenesis, and the sequences were confirmed at the Center for Bioinformatics and Functional Genomics (CBFG) at Miami University. Cells were grown in 1L Luria broth (LB) medium supplemented with 100 μg mL^-1 ampicillin at 310 K. When the OD600 reached 0.8, 0.5 mM isopropyl-β-D-thiogalactopyranoside was added to the medium to induce protein expression. The cell pellet was harvested within 12 h after induction and re-suspended in the phosphate-buffered saline (PBS) buffer (140 mM NaCl, 2.7 mM KCl, 10 mM Na2HPO4, 1.8 mM KH2PO4, pH 7.3). […]
(§2) Chemical shift perturbations were followed by 2D ^1H-^15N HSQC for P[8] […] Spectra were process with NMRPipe software and analyzed with SPARKY [69]. The chemical shift changes upon titration was determined by the following formula [71]: Δδobs=1/2[δH2+(α·δN2)],δH=δHfree−δHbound,δN=δNfree−δNbound . […] Standard deviation σ of the Euclidean chemical shift change was calculated and threshold value was chosen from 1.5σ to 2.5σ for the VP8*-HBGA by balancing the specificity and sensitivity. […]

Test [1] relates to P[8] VP8*. Description: STD NMR of glycans with P[8] VP8*. Type of test: binding, human RV. As to conditions: 283 K; 1:50 or 1:56 protein:ligand. As for the experimental part:
(§3) All STD NMR spectra were acquired in Shigemi Tubes (Shigemi, USA) on 600-MHz Bruker Avance III and 850-MHz Bruker Avance II NMR spectrometers equipped with conventional 5-mm HCN probes at 283 K with pulse sequence STDDIFFESGP.3. The NMR samples for P[8] VP8* were prepared as 46 μM P[8] VP8* with 2.3 mM LNDFHI (1:50 protein: ligand ratio), and 33 μM P[8] VP8* with 1.86 mM Le^b tetra-saccharide (1:56 protein: ligand ratio). The NMR samples for P[6] VP* were prepared as 46 μM P[6] with 4.6 mM LNT (1:100 protein: ligand ratio), and 46 μM P[6] with 2.3 mM LNT (1:50 protein: ligand ratio). A control sample was prepared as 40 μM GST with 2.0 mM LNDFHI (1:50 protein: ligand ratio). […] The protein resonances were saturated with a cascade of Gaussian-shaped pulses with a duration of 50 ms, with a total saturation time of 2 s and 4 s. The on resonance was chosen to selectively saturate only the proteins for each sample. […] The STD amplification factors were determined by the equation (ISTD/IO) × molar ratio, where I0 are the intensities of the signals in the reference spectrum, and ISTD are intensities that obtained by subtracting the on-resonance spectrum from the off-resonance spectrum. The normalized STD amplification percentage for epitope mapping was determined by dividing by the largest STD amplification factor for each ligand.

The next test has as its system H177A-P[8] VP8* mutant. Description: HSQC NMR titration of H177A-P[8] mutant with LNDFH I. The test is classed as binding, human RV. The conditions noted are these: same ligand ratio as wild type P[8]. As for the experimental part:
as §1, §2

The next test relates to D79A-P[8] VP8* mutant. Put plainly: HSQC NMR titration of D79A-P[8] mutant with LNDFH I. Type of test: binding, human RV. The conditions noted are these: same ligand ratio as wild type P[8]. Here is the method: as §1, §2
The next test concerns R154A-P[8] VP8* mutant. Description: HSQC NMR titration of R154A-P[8] mutant with LNDFH I. The test is classed as binding, human RV. The conditions noted are these: same ligand ratio as wild type P[8]. Here is the method:
as §1, §2

The subject of the next test is T78A-P[8] VP8* mutant. Description: HSQC NMR titration of T78A-P[8] mutant with LNDFH I. The conditions noted are these: same ligand ratio as wild type P[8]. The test is classed as binding, human RV. Here is the method: as §1, §2
For a further test, the system named is K168A-P[8] VP8* mutant. Description: HSQC NMR titration of K168A-P[8] mutant with LNDFH I. Type of test: binding, human RV. As to conditions: same ligand ratio as wild type P[8]. As for the experimental part:
as §1, §2

In the next test the target is P[8] VP8* (BM13851) (Rotavirus A, UniProt P11193). Put plainly: 2D 1H-15N HSQC NMR titration of P[8] VP8* with glycans. Type of test: binding, human RV. The conditions noted are these: for Kd: read-out: dissociation constant (Kd), PBS buffer, global fitting. As for the experimental part:
Chemical shift perturbations were followed by 2D ^1H-^15N HSQC for P[8] VP8*, P[8] mutants, and P[6] VP8* upon titration of each glycan ligand. NMR data were collected with samples in PBS buffer in 5-mm Shigemi NMR tubes on 600-MHz Bruker Avance III or 850-MHz Bruker Avance II NMR spectrometers equipped with conventional 5-mm HCN probes. Samples of 0.20 mM ^15N-labeled P[8] VP8* was titrated with LNDFH I at 0, 0.020, 0.040, 0.80, 1.00, 1.20, 1.40, 1.60, 2.00, 2.80, 3.60, 4.40, 5.00 mM. The same ratio of LNDFH I was titrated to each P[8] mutant as the titration of LNDFH I to wild type P[8]. Samples of 0.31 mM ^15N-labeled P[8] VP8* was titrated with Le^b tetra-saccharide at 0, 0.031, 0.15, 0.31, 0.62, 1.24, 2.49, 4.35, 5.60, 6.84, 7.78, 8.71, 9.33 mM. Samples of 0.24 mM ^15N-labeled P[6] VP8* was titrated with LNFP I at 0, 0.024, 0.12, 0.24, 0.48, 0.96, 1.93, 3.37, 4.34, 5.30, 6.03, 6.75, 7.23, 8.44 mM. Samples of 0.33 mM ^15N-labeled P[6] VP8* was titrated with LNT at 0, 0.033, 0.17, 0.33, 0.69, 1.34, 2.67, 4.68, 6.01, 7.35, 8.35 mM. Spectra were process with NMRPipe software and analyzed with SPARKY [69]. The chemical shift changes upon titration was determined by the following formula [71]: Δδobs=1/2[δH2+(α·δN2)],δH=δHfree−δHbound,δN=δNfree−δNbound . Where δH free and δH bound are the backbone amide hydrogen chemical shifts in the absence and presence of ligand, δN free and δN bound are the amide nitrogen chemical shifts in the free and bound state. The value of Euclidean weighting correction factor α was set to 0.14 [72]. Standard deviation σ of the Euclidean chemical shift change was calculated and threshold value was chosen from 1.5σ to 2.5σ for the VP8*-HBGA by balancing the specificity and sensitivity. Amino acids with chemical shifts greater than the threshold value were used to calculate the dissociation constants. Dissociation constants were obtained by fitting the following equation: Δδobs=Δδmax{([P]t+[L]t+Kd)−[([P]t+[L]t+Kd)^2−4[P]t[L]t]^1/2}/2Pt . Where [P]t and [L]t represent the total concentrations of protein and ligand, Δδobs is the change in the observed chemical shift from the free state, Δδmax is the maximum chemical shift change on saturation, Kd represents the dissociation constant.

The subject of test [2] is glutathione S-transferase (GST). Put plainly: STD NMR negative control with GST. The conditions noted are these: 40 μM GST with 2.0 mM ligand. Type of test: binding. As for the experimental part:
as §3

The target in another test is P[6] VP8* (BM11596) (Rotavirus A, UniProt D2DXN5). Description: 2D 1H-15N HSQC NMR titration of P[6] VP8* with glycans. Type of test: binding, human RV. Here is the method: Chemical shift perturbations were followed by 2D ^1H-^15N HSQC for P[8] VP8*, P[8] mutants, and P[6] VP8* upon titration of each glycan ligand. NMR data were collected with samples in PBS buffer in 5-mm Shigemi NMR tubes on 600-MHz Bruker Avance III or 850-MHz Bruker Avance II NMR spectrometers equipped with conventional 5-mm HCN probes. Samples of 0.20 mM ^15N-labeled P[8] VP8* was titrated with LNDFH I at 0, 0.020, 0.040, 0.80, 1.00, 1.20, 1.40, 1.60, 2.00, 2.80, 3.60, 4.40, 5.00 mM. The same ratio of LNDFH I was titrated to each P[8] mutant as the titration of LNDFH I to wild type P[8]. Samples of 0.31 mM ^15N-labeled P[8] VP8* was titrated with Le^b tetra-saccharide at 0, 0.031, 0.15, 0.31, 0.62, 1.24, 2.49, 4.35, 5.60, 6.84, 7.78, 8.71, 9.33 mM. Samples of 0.24 mM ^15N-labeled P[6] VP8* was titrated with LNFP I at 0, 0.024, 0.12, 0.24, 0.48, 0.96, 1.93, 3.37, 4.34, 5.30, 6.03, 6.75, 7.23, 8.44 mM. Samples of 0.33 mM ^15N-labeled P[6] […] Spectra were process with NMRPipe software and analyzed with SPARKY [69]. The chemical shift changes upon titration was determined by the following formula [71]: Δδobs=1/2[δH2+(α·δN2)],δH=δHfree−δHbound,δN=δNfree−δNbound . […] Standard deviation σ of the Euclidean chemical shift change was calculated and threshold value was chosen from 1.5σ to 2.5σ for the VP8*-HBGA by balancing the specificity and sensitivity. […]

For the next test, the system named is P[6] VP8*. Description: STD NMR of glycans with P[6] VP8*. The test is classed as binding, human RV. The conditions noted are these: 283 K. Here is the method: as §3
Test [3] has as its system P[8] VP8*. Set-up: method as in PMID 31226167. As to conditions: cited from earlier work.

Several values for one entry are separate records, joined by “and”; a condition that tells them apart may be missing. Equal values may be shown once. Entries after “also recorded” stand apart in the source; their conditions may differ.

As to `CC(=O)NC1C(OC2C(O)C(CO)OC(OC3C(CO)OC(O)C(O)C3O)C2O)OC(CO)C(OC2OC(C)C(O)C(O)C2O)C1OC1OC(CO)C(O)C(O)C1OC1OC(C)C(O)C(O)C1O` (stereo not drawn) [LNDFH I, lacto-N-difucohexaose I], the “binding to D186A-P[8] mutant” value in the test on D186A-P[8] VP8* mutant was “significant loss of binding to the glycan”. Besides, in the test with P[8] VP8* [1], the “binding to P[8] VP8* by STD NMR” value is on record as “found to bind”. The “binding to H177A-P[8] mutant” value in the test on H177A-P[8] VP8* mutant is “significant loss of binding to the glycan”. In addition, the “binding to D79A-P[8] mutant” value with D79A-P[8] VP8* mutant is given as “retained binding to the glycan”. The “binding to R154A-P[8] mutant” value in the test with R154A-P[8] VP8* mutant is on record as “significant loss of binding to the glycan”. For the same compound, the “binding to T78A-P[8] mutant” value in the test with T78A-P[8] VP8* mutant was “retained binding to the glycan”. Besides, the “binding to K168A-P[8] mutant” value with K168A-P[8] VP8* mutant is on record as “retained binding to the glycan”. For the same compound, at P[8] VP8* (BM13851), the dissociation constant Kd (in general, the concentration at which binding is half-saturated) is 6.3 mM and 6.29 mM. Also, in [2], the “STD NMR signal with GST (negative control)” value is on record as “did not show significant signal intensities”.
As to `CC(=O)NC1C(OC2C(O)C(CO)OC(OC3C(CO)OC(O)C(O)C3O)C2O)OC(CO)C(O)C1OC1OC(CO)C(O)C(O)C1OC1OC(C)C(O)C(O)C1O` (stereo not drawn) [LNFP I, lacto-N-fucopentaose I], the values for the Kd at P[6] VP8* (BM11596) and at P[8] VP8* (BM13851) were 13.6 ± 1.7 mM and 23.5 mM, respectively. For the same compound, the “binding to P[6] VP8* by STD NMR” value with P[6] VP8* is “bound”.
The compound `CC(=O)NC1C(OC2C(O)C(CO)OC(OC3C(CO)OC(O)C(O)C3O)C2O)OC(CO)C(O)C1OC1OC(CO)C(O)C(O)C1O` (stereo not drawn) [LNT, lacto-N-tetraose] came in with a Kd at P[6] VP8* (BM11596) of 2.5 ± 0.2 mM. In addition, the “binding to P[8] VP8* in HSQC titration” value at P[8] VP8* (BM13851) is on record as “little binding signal; also recorded: did not recognize”. Besides, in the test with P[6] VP8*, the “binding to P[6] VP8* by STD NMR” value was “bound”.
On to `CC(=O)NC1C(O)OC(CO)C(OC2OC(C)C(O)C(O)C2O)C1OC1OC(CO)C(O)C(O)C1OC1OC(C)C(O)C(O)C1O` (stereo not drawn) [Le^b tetra-saccharide, Fucα1-2Galβ1–3[Fucα1–4]GlcNAc], for which, in the test on P[8] VP8* [1], the “binding to P[8] VP8* by STD NMR” value was “found to bind”. In addition, on P[8] VP8* (BM13851), the Kd worked out at 20.3 ± 4.8 mM.
Turning to `CC(=O)N[C@H]1C(O)O[C@H](CO)[C@@H](O)[C@@H]1O[C@@H]1O[C@H](CO)[C@H](O)[C@H](O)[C@H]1O` (stereo partly drawn) [lacto-N-biose], the “affinity relative to H1 trisaccharide” value in the test with P[8] VP8* [3] is reported as “two-fold weaker affinity”.
